Assay results: patent US20250221998A1, “DISCOVERY OF COVALENT EGFR INHIBITOR THROUGH CYSTEINE 775” (Dana-Farber Cancer Institute, Inc., priority 2022, published 2025)

What was measured:
[1] = target: EGFR L858R/C797S Ba/F3 cells (Homo sapiens, UniProt P00533, C797S/L858R, cells depend on it); assay: Ba/F3 cell proliferation (Cell Titer Glo), EGFR L858R/C797S; format: cell-based, murine; conditions: 72 hours exposure, read-out: L858R/C797S (μM), inhibitory activity against EGFR mutants
Description: (§1) The EGFR mutant L858R Ba/F3 cells have been previously described (Zhou, W., et al. Nature 462, 2009, 1070-1074). The EGFR C797S and C775S mutations were introduced via site directed mutagenesis using the Quick Change Site-Directed Mutagenesis kit into a vector containing EGFR L858R mutation (Stratagene; La Jolla, CA) according to the manufacturer's instructions. All constructs were confirmed by DNA sequencing. The constructs were then shuttled into the retroviral vector JP1540 by either using the Cre-recombination system (Agilent Technologies, Santa Clara, CA) or the In-fusion HD Cloning kit (Takara Bio USA, Inc.; Mountain view, CA). Ba/F3 cells were then infected with retrovirus per standard protocols, as described previously (Zhou, et al, Nature 2009). Stable clones were obtained by selection in puromycin (2 ug/ml). All BaF/3 mutant cells were maintained in RPMI 1640 (Cellgro; Mediatech Inc., Herndon, CA) supplemented with 10% FBS, 100 units/mL penicillin, 100 units/mL streptomycin.
(§2) Growth and inhibition of growth was assessed by the Cell Titer Glo assay (Promega, Madison, WI) and was performed according to the manufacturer's instructions. The Cell Titer Glo assay is a luminescence-based method used to determine the number of viable cells based on quantitation of the ATP present, which is directly proportional to the amount of metabolically active cells present. Ba/F3 cells of different EGFR genotypes were exposed to compounds for 72 hours and the number of cells used per experiment was determined empirically as has been previously established (Zhou, et al., Nature 2009). All experimental points were set up in triplicates in 384-well plates. […] The curves were fitted using a non-linear regression model with a sigmoidal dose response.
(§3) For inhibitory activity against EGFR mutants, the following designations are used: ≤0·25 μM=A, 0·25 μM˜0.5 μM=B, 0.5 μM˜2.5 μM=C, ≥2.5 μM=D.

[2] = target: EGFR mutant L858R Ba/F3 cells (Homo sapiens, UniProt P00533, L858R, cells depend on it); assay: Ba/F3 cell proliferation (Cell Titer Glo), EGFR L858R; format: cell-based, murine; conditions: 72 hours exposure, read-out: L858R BaF3 (μM), inhibitory activity against EGFR mutants
EGFR mutant L858R Ba/F3 cells, sequence (P00533 whole entry L858R): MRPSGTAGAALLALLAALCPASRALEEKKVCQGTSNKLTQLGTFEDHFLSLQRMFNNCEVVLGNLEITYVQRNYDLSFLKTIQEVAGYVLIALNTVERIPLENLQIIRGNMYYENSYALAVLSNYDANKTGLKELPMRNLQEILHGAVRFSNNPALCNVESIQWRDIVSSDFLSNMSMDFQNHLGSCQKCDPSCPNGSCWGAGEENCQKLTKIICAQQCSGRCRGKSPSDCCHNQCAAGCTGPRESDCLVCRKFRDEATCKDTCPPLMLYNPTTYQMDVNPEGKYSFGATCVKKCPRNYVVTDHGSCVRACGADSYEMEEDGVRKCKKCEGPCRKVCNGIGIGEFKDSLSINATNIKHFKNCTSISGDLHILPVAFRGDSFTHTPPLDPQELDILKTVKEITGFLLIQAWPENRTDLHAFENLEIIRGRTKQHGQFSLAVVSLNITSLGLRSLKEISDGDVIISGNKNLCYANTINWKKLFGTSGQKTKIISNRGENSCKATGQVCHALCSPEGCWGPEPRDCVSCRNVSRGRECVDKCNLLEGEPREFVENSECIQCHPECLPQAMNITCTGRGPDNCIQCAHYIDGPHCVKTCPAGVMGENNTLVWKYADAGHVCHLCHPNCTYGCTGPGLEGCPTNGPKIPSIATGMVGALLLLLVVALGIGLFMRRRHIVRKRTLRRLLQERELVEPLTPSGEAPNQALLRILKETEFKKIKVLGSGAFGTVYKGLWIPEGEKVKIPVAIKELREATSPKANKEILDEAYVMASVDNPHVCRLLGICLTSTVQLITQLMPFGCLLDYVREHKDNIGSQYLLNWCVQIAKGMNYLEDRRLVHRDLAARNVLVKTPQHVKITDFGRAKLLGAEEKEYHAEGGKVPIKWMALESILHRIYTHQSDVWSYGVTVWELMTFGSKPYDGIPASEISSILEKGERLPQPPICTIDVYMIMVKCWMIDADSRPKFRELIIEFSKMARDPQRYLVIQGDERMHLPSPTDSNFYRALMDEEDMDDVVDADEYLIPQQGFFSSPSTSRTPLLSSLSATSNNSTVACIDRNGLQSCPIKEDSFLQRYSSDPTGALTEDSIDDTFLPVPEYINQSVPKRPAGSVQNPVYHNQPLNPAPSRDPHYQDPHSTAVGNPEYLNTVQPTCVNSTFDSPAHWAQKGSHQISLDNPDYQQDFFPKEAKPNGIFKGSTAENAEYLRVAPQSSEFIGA
Description: as §1, §2, §3

EGFR L858R/C797S Ba/F3 cells, sequence (P00533 whole entry C797S/L858R, the tested form may be a part): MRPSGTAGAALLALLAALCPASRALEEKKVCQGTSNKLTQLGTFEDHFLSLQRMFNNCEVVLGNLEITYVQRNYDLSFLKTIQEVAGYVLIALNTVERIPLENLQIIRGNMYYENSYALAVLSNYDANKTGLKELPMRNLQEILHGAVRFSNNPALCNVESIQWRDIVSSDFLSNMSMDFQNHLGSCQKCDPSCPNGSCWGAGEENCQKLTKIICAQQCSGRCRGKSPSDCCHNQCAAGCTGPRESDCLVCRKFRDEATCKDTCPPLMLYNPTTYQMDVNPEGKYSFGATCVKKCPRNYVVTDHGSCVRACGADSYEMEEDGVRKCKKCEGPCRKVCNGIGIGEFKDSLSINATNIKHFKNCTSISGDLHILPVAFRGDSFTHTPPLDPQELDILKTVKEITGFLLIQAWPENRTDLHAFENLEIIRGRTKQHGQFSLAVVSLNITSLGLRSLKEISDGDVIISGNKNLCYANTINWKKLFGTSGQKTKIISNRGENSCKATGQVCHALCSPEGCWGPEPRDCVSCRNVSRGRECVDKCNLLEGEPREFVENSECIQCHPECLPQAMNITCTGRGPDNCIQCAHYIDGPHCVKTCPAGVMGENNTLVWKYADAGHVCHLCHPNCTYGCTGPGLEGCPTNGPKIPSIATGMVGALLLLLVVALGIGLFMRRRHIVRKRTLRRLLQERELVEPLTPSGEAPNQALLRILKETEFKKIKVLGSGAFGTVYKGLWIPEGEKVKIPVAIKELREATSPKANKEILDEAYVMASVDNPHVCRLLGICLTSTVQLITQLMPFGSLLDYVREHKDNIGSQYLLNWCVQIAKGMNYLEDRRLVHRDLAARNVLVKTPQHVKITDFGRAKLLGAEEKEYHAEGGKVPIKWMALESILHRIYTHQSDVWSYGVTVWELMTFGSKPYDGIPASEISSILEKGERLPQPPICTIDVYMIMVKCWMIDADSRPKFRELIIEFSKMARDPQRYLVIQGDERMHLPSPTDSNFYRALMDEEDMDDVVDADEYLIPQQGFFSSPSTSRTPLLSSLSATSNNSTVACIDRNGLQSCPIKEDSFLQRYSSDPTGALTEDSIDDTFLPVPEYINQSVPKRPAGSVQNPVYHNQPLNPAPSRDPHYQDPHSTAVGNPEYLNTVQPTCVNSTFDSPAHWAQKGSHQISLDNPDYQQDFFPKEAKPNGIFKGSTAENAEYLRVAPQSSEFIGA

| SMILES | GI50 [1] | GI50 [2] |
| --- | --- | --- |
| C=CC(=O)N1CCN(c2cc3cnc(Nc4ccc(N5CCN(C)CC5)cc4)nc3n(C)c2=O)C2(CC2)C1 [Compound 012, 8-methyl-2-[4-(4-methylpiperazin-1-yl)anilino]-6-(7-prop-2-enoyl-4,7-diazaspiro[2.5]octan-4-yl)pyrido[2,3-d]pyrimidin-7-one] | ≥ 2.5 µM | ≥ 2.5 µM |
| C=C(F)C(=O)N1CCN(c2cc3cnc(Nc4cnn(CCO)c4)nc3n(C)c2=O)c2ccccc21 [Compound 013, 6-[4-(2-fluoroprop-2-enoyl)-2,3-dihydroquinoxalin-1-yl]-2-[[1-(2-hydroxyethyl)pyrazol-4-yl]amino]-8-methyl-pyrido[2,3-d]pyrimidin-7-one] | 0.25 to 0.5 µM | ≤ 0.25 µM |
| C=CC(=O)NC1CCCN(c2cc3cnc(Nc4cnn(CCO)c4)nc3n(C)c2=O)C1 (stereo not shown) [Compound 015, N-[1-[2-[[1-(2-hydroxyethyl)pyrazol-4-yl]amino]-8-methyl-7-oxo-pyrido[2,3-d]pyrimidin-6-yl]-3-piperidyl]prop-2-enamide] | ≥ 2.5 µM | ≥ 2.5 µM |
| C=C(F)C(=O)NC1CCCN(c2cc3cnc(Nc4cnn(CCO)c4)nc3n(C)c2=O)C1 (stereo not shown) [Compound 016, 2-fluoro-N-[1-[2-[[1-(2-hydroxyethyl)pyrazol-4-yl]amino]-8-methyl-7-oxo-pyrido[2,3-d]pyrimidin-6-yl]-3-piperidyl]prop-2-enamide] | ≥ 2.5 µM | ≥ 2.5 µM |
| C=CC(=O)N1CCC(c2cc3cnc(Nc4cnn(CCO)c4)nc3n(C)c2=O)c2ccccc21 (stereo not shown) [Compound 017, 2-[[1-(2-hydroxyethyl)pyrazol-4-yl]amino]-8-methyl-6-(1-prop-2-enoyl-3,4-dihydro-2H-quinolin-4-yl)pyrido[2,3-d]pyrimidin-7-one] | ≤ 0.25 µM | ≤ 0.25 µM |
| C=CC(=O)N1CC(C)N(c2cc3cnc(Nc4ccc(N5CCN(C)CC5)cc4)nc3n(C)c2=O)C(C)C1 (stereo not shown) [Compound 022, 6-(2,6-dimethyl-4-prop-2-enoyl-piperazin-1-yl)-8-methyl-2-[4-(4-methylpiperazin-1-yl)anilino]pyrido[2,3-d]pyrimidin-7-one] | ≥ 2.5 µM | ≥ 2.5 µM |
| C=CC(=O)N1CCN(c2cc3cnc(Nc4ccc(N5CCN(C)CC5)cc4)nc3n(C)c2=O)C2CC21 (stereo not shown) [Compound 024, 8-methyl-2-[4-(4-methylpiperazin-1-yl)anilino]-6-(5-prop-2-enoyl-2,5-diazabicyclo[4.1.0]heptan-2-yl)pyrido[2,3-d]pyrimidin-7-one] | ≥ 2.5 µM | ≥ 2.5 µM |
| C=CC(=O)N1CCN(c2cc3cnc(Nc4ccc(N5CCC(O)CC5)cc4)nc3n(C)c2=O)c2cccc(C)c21 [Compound 027, 2-[4-(4-hydroxy-1-piperidyl)anilino]-8-methyl-6-(5-methyl-4-prop-2-enoyl-2,3-dihydroquinoxalin-1-yl)pyrido[2,3-d]pyrimidin-7-one] | ≤ 0.25 µM | ≤ 0.25 µM |
| C=CC(=O)N1CCN(c2cc3cnc(Nc4ccc(N5CCN(C)CC5)cn4)nc3n(C)c2=O)c2cccc(C)c21 [Compound 030] | ≤ 0.25 µM | ≤ 0.25 µM |
| C=CC(=O)N1CCN(c2cc3cnc(Nc4ccc(OCCN(C)C)cc4)nc3n(C)c2=O)c2cccc(C)c21 [Compound 033, 2-[4-[2-(dimethylamino)ethoxy]anilino]-8-methyl-6-(5-methyl-4-prop-2-enoyl-2,3-dihydroquinoxalin-1-yl)pyrido[2,3-d]pyrimidin-7-one] | ≤ 0.25 µM | ≤ 0.25 µM |
| C=CC(=O)N1CCN(c2cc3cnc(Nc4ccc5c(c4)CN(S(C)(=O)=O)CC5)nc3n(C)c2=O)c2cccc(C)c21 [Compound 035] | ≤ 0.25 µM | ≤ 0.25 µM |
| C=CC(=O)N1CCN(c2cc3cnc(Nc4cnn(CCN(C)C)c4)nc3n(C)c2=O)c2cccc(C)c21 [Compound 037, 2-[[1-[2-(dimethylamino)ethyl]pyrazol-4-yl]amino]-8-methyl-6-(5-methyl-4-prop-2-enoyl-2,3-dihydroquinoxalin-1-yl)pyrido[2,3-d]pyrimidin-7-one] | ≤ 0.25 µM | ≤ 0.25 µM |
| C=CC(=O)N1CCN(c2cc3cnc(Nc4cnn(C5CCN(C)CC5)c4)nc3n(C)c2=O)c2cccc(C)c21 [Compound 039, 8-methyl-2-[[1-(1-methyl-4-piperidyl)pyrazol-4-yl]amino]-6-(5-methyl-4-prop-2-enoyl-2,3-dihydroquinoxalin-1-yl)pyrido[2,3-d]pyrimidin-7-one] | ≤ 0.25 µM | ≤ 0.25 µM |

The next lines start with the values.

| GI50 [1] | GI50 [2] | SMILES |
| --- | --- | --- |
| ≥ 2.5 µM | ≥ 2.5 µM | C=CC(=O)N1CCN(c2cc3cnc(Nc4ccc(N5CCN(C)CC5)cc4)nc3n(C)c2=O)C(c2ccccc2)C1 (stereo not shown) [Compound 011, 8-methyl-2-[4-(4-methylpiperazin-1-yl)anilino]-6-(2-phenyl-4-prop-2-enoyl-piperazin-1-yl)pyrido[2,3-d]pyrimidin-7-one] |
| ≤ 0.25 µM | ≤ 0.25 µM | C=C(F)C(=O)N1CCC(c2cc3cnc(Nc4cnn(CCO)c4)nc3n(C)c2=O)c2ccccc21 (stereo not shown) [Compound 014, 6-[1-(2-fluoroprop-2-enoyl)-3,4-dihydro-2H-quinolin-4-yl]-2-[[1-(2-hydroxyethyl)pyrazol-4-yl]amino]-8-methyl-pyrido[2,3-d]pyrimidin-7-one] |
| ≥ 2.5 µM | ≥ 2.5 µM | C=C(F)C(=O)NC1CCN(c2cc3cnc(Nc4cnn(CCO)c4)nc3n(C)c2=O)CC1 [Compound 018] |
| ≤ 0.25 µM | ≤ 0.25 µM | C=CC(=O)N1CCN(c2cc3cnc(Nc4ccc(N5CCN(C)CC5)cc4)nc3n(C)c2=O)c2cccc(C)c21 [Compound 019, 8-methyl-2-[4-(4-methylpiperazin-1-yl)anilino]-6-(5-methyl-4-prop-2-enoyl-2,3-dihydroquinoxalin-1-yl)pyrido[2,3-d]pyrimidin-7-one] |
| 0.25 to 0.5 µM | ≤ 0.25 µM | C=CC(=O)N1CCN(c2cc3cnc(Nc4cnn(CCO)c4)nc3n(C)c2=O)c2cccc(OC)c21 [Compound 020, 2-[[1-(2-hydroxyethyl)pyrazol-4-yl]amino]-6-(5-methoxy-4-prop-2-enoyl-2,3-dihydroquinoxalin-1-yl)-8-methyl-pyrido[2,3-d]pyrimidin-7-one] |
| ≤ 0.25 µM | ≤ 0.25 µM | C=CC(=O)N1CCN(c2cc3cnc(Nc4ccc(N5CCN(C)CC5)cc4)nc3n(C)c2=O)c2cccc(OC)c21 [Compound 021] |
| ≥ 2.5 µM | ≥ 2.5 µM | C=CC(=O)N1CC2CCN(c3cc4cnc(Nc5ccc(N6CCN(C)CC6)cc5)nc4n(C)c3=O)C[C@@H]2C1 (stereo partly shown) [Compound 023, 8-methyl-2-[4-(4-methylpiperazin-1-yl)anilino]-6-(2-prop-2-enoyl-3,3a,4,6,7,7a-hexahydro-1H-pyrrolo[3,4-c]pyridin-5-yl)pyrido[2,3-d]pyrimidin-7-one] |
| ≥ 2.5 µM | ≥ 2.5 µM | C=CC(=O)N1CCN(c2cc3cnc(Nc4ccc(N5CCN(C)CC5)cc4)nc3n(C)c2=O)C(=O)C1 [Compound 025, 8-methyl-2-[4-(4-methylpiperazin-1-yl)anilino]-6-(2-oxo-4-prop-2-enoyl-piperazin-1-yl)pyrido[2,3-d]pyrimidin-7-one] |
| 0.5 to 2.5 µM | 0.5 to 2.5 µM | CCC(=O)N1CCN(c2cc3cnc(Nc4ccc(N5CCN(C)CC5)cc4)nc3n(C)c2=O)c2cccc(C)c21 [Compound 026] |
| 0.25 to 0.5 µM | ≤ 0.25 µM | C=C(F)C(=O)N1CCN(c2cc3cnc(Nc4ccc(N5CCN(C)CC5)cc4)nc3n(C)c2=O)c2cccc(C)c21 [Compound 028] |
| ≤ 0.25 µM | ≤ 0.25 µM | C=CC(=O)N1CCN(c2cc3cnc(Nc4ccc(N5CCN(C)CC5)cc4OC)nc3n(C)c2=O)c2cccc(C)c21 [Compound 029] |
| ≤ 0.25 µM | ≤ 0.25 µM | C=CC(=O)N1CCN(c2cc3cnc(Nc4ccc(N5CCN(C)CC5)nc4)nc3n(C)c2=O)c2cccc(C)c21 [Compound 031] |
| ≤ 0.25 µM | ≤ 0.25 µM | C=CC(=O)N1CCN(c2cc3cnc(Nc4ccc(OCCN5CCCC5)cc4)nc3n(C)c2=O)c2cccc(C)c21 [Compound 032] |
| ≤ 0.25 µM | ≤ 0.25 µM | C=CC(=O)N1CCN(c2cc3cnc(Nc4ccc(CS(=O)(=O)NC)cc4)nc3n(C)c2=O)c2cccc(C)c21 [Compound 034, N-methyl-1-[4-[[8-methyl-6-(5-methyl-4-prop-2-enoyl-2,3-dihydroquinoxalin-1-yl)-7-oxo-pyrido[2,3-d]pyrimidin-2-yl]amino]phenyl]methanesulfonamide] |
| ≤ 0.25 µM | ≤ 0.25 µM | C=CC(=O)N1CCN(c2cc3cnc(Nc4ccc(N5CCN(C)CC5)cc4F)nc3n(C)c2=O)c2cccc(C)c21 [Compound 036] |
| ≤ 0.25 µM | ≤ 0.25 µM | C=CC(=O)N1CCN(c2cc3cnc(Nc4cnn(CCO)c4)nc3n(C)c2=O)c2cccc(C)c21 [Compound 038] |
